# In ChEMBL document CHEMBL6109139, “Rational Design of the First Dual Agonist at Trace Amine-Associated Receptor 1 and 5-HT2C Receptors Based on Binding Pocket Similarity for the Treatment of Schizophrenia and Alzheimer's Disease-Related Psychosis” (J Med Chem, 2025):
# Active and inactive are the calls of the source. No cut-off for these calls is given here.
# Assays:
# [1] = molecular target: 5-hydroxytryptamine receptor 1B (Homo sapiens) (UniProt P28222); assay: Binding affinity to 5-HT1B (unknown origin) at 10 uM by radioligand binding assay relative to control
# [2] = test system: 5-hydroxytryptamine receptor 2C (Homo sapiens), P28335 [W324A]; assay: Agonist activity at 5HT2CR W324A mutant (unknown origin) expressed in HEK293 cells assessed as IP1 level by HTRF IP1 competitive binding assay; type: cell-based
# [3] = molecular target: 5-hydroxytryptamine receptor 2C (Rattus norvegicus) (UniProt P08909); assay: Agonist activity at rat 5-HT2CR by measuring maximum efficacy relative to control; type: functional; conditions: filed as agonist
# [4] = molecular target: Sodium-dependent dopamine transporter (Homo sapiens) (UniProt Q01959); assay: Binding affinity to DAT receptor (unknown origin) at 10 uM by radioligand binding assay relative to control
# [5] = molecular target: Trace amine-associated receptor 1 (Rattus norvegicus) (UniProt Q923Y9); assay: Agonist activity at rat TAAR1 by measuring maximum efficacy relative to control; type: functional; conditions: filed as agonist
# [6] = Toxicity in Sprague-Dawley rat assessed as dyskinesia 2.5 to 7.5 mg/kg, po administered once daily for 4 weeks; type: organism-based; conditions: in vivo, 672 h, dose 2.5-7.5 mg/kg
# [7] = Mutagenicity in Salmonella typhimurium TA97a by Ames test; type: toxicity; conditions: salmonella enterica subsp. enterica serovar typhimurium
# [8] = Metabolic stability in mouse liver microsomes assessed as intrinsic clearance at 1 uM incubated for 60 mins by LC-MS/MS analysis; type: ADME, Microsome; conditions: read-out: CLH
# [9] = molecular target: Histamine H1 receptor (Homo sapiens) (UniProt P35367); assay: Binding affinity to H1 receptor (unknown origin) at 10 uM by radioligand binding assay relative to control
# [10] = Toxicity in female Beagle dog assessed as minimal decrease activity at 2.5 mg/kg, IG administered once daily for 4 weeks; type: organism-based, Canis lupus familiaris; conditions: in vivo, po, 672 h
# [11] = molecular target: Sodium-dependent noradrenaline transporter (Homo sapiens) (UniProt P23975); assay: Binding affinity to NET receptor (unknown origin) at 10 uM by radioligand binding assay relative to control
# [12] = Toxicity in female Beagle dog assessed as change in hematology at 0.75 to 2.5 mg/kg, IG administered once daily for 4 weeks and measured after 4 weeks; type: organism-based, Canis lupus familiaris; conditions: in vivo, po, 1344 h, dose 0.75-2.5 mg/kg, time 8 weeks
# [13] = test system: 5-hydroxytryptamine receptor 2C (Homo sapiens), P28335 [D134A]; assay: Agonist activity at 5HT2CR D134A mutant (unknown origin) expressed in HEK293 cells assessed as IP1 level by HTRF IP1 competitive binding assay; type: cell-based
# [14] = Toxicity in male Beagle dog assessed as minimal decrease activity at 2.5 mg/kg, IG administered once daily for 4 weeks; type: organism-based, Canis lupus familiaris; conditions: in vivo, po, 672 h
# [15] = Toxicity in female Beagle dog assessed as change in body temperature at 0.75 to 2.5 mg/kg, IG administered once daily for 4 weeks and measured after 4 weeks; type: organism-based, Canis lupus familiaris; conditions: in vivo, po, 1344 h, dose 0.75-2.5 mg/kg, time 8 weeks
# [16] = Toxicity in male Sprague-Dawley rat assessed as slow respiration at 7.5 mg/kg, po administered once daily for 4 weeks and measured after 4 weeks; type: organism-based; conditions: in vivo, 1344 h, time 8 weeks
# [17] = Mutagenicity in Salmonella typhimurium TA102 by Ames test; type: toxicity; conditions: salmonella enterica subsp. enterica serovar typhimurium
# [18] = molecular target: Trace amine-associated receptor 1 (Mus musculus) (UniProt Q923Y8); assay: Agonist activity at mouse TAAR1 by measuring maximum efficacy relative to control; type: functional; conditions: filed as agonist
# [19] = Plasma protein binding in human assessed as unbound fraction by LC-MS/MS analysis; type: ADME, cell-free
# [20] = Cardiotoxicity in conscious cynomolgus monkey assessed as good general health at 3.125 to 12.5 mg/kg, IG; type: toxicity, organism-based, Macaca fascicularis; conditions: in vivo, po, dose 3.125-12.5 mg/kg
# [21] = molecular target: Mu-type opioid receptor (Homo sapiens) (UniProt P35372); assay: Binding affinity to op-mu receptor (unknown origin) at 10 uM by radioligand binding assay relative to control
# [22] = Toxicity in female Sprague-Dawley rat assessed as change in prolactin level at 2.5 to 7.5 mg/kg, po administered once daily for 4 weeks and measured after 4 weeks; type: organism-based; conditions: in vivo, 1344 h, dose 2.5-7.5 mg/kg, time 8 weeks
# [23] = test system: HEK293; assay: Agonist activity at 5HT2CR […] mutant (unknown origin) expressed in HEK293 cells assessed as IP1 level by HTRF IP1 competitive binding assay; type: cell-based; conditions: Homo sapiens
# [24] = Toxicity in female Sprague-Dawley rat assessed as suppression of body weight gain at 7.5 mg/kg, po administered once daily for 4 weeks and measured weekly twice; type: organism-based; conditions: in vivo, 672 h
# [25] = Toxicity in female Beagle dog assessed as change in clinical chemistry at 0.75 to 2.5 mg/kg, IG administered once daily for 4 weeks and measured after 4 weeks; type: organism-based, Canis lupus familiaris; conditions: in vivo, po, 1344 h, dose 0.75-2.5 mg/kg, time 8 weeks
# [26] = Cardiotoxicity in conscious cynomolgus monkey assessed as change in systolic pressure at 3.125 to 12.5 mg/kg, IG measured within 25 hrs; type: toxicity, organism-based, Macaca fascicularis; conditions: in vivo, po, dose 3.125-12.5 mg/kg
# [27] = Toxicity in female Beagle dog assessed as change in organ ratios at 0.75 to 2.5 mg/kg, IG administered once daily for 4 weeks and measured after 4 weeks; type: organism-based, Canis lupus familiaris; conditions: in vivo, po, 1344 h, dose 0.75-2.5 mg/kg, time 8 weeks
# [28] = Toxicity in male Beagle dog assessed as change in body weight at 0.75 to 2.5 mg/kg, IG administered once daily for 4 weeks and measured after 4 weeks; type: organism-based, Canis lupus familiaris; conditions: in vivo, po, 1344 h, dose 0.75-2.5 mg/kg, time 8 weeks
# [29] = Toxicity in Sprague-Dawley rat assessed as stereotypy 2.5 to 7.5 mg/kg, po administered once daily for 4 weeks; type: organism-based; conditions: in vivo, 672 h, dose 2.5-7.5 mg/kg
# [30] = Toxicity in female Sprague-Dawley rat assessed as irritability at 2.5 mg/kg, po administered once daily for 4 weeks; type: organism-based; conditions: in vivo, 672 h
# [31] = molecular target: Vasopressin V1a receptor (Homo sapiens) (UniProt P37288); assay: Binding affinity to V1a receptor (unknown origin) at 10 uM by radioligand binding assay relative to control
# [32] = molecular target: Glutamate [NMDA] receptor (Homo sapiens) (UniProt Q05586+Q12879+Q13224+O15399+O60391+Q14957+Q8TCU5); assay: Binding affinity to NMDA receptor (unknown origin) at 10 uM by radioligand binding assay relative to control; type: protein-complex assay
# [33] = Toxicity in male Beagle dog assessed as change in body temperature at 0.75 to 2.5 mg/kg, IG administered once daily for 4 weeks and measured after 4 weeks; type: organism-based, Canis lupus familiaris; conditions: in vivo, po, 1344 h, dose 0.75-2.5 mg/kg, time 8 weeks
# [34] = Toxicity in male Sprague-Dawley rat assessed as suppression of body weight gain at 7.5 mg/kg, po administered once daily for 4 weeks and measured after 4 weeks; type: organism-based; conditions: in vivo, 1344 h, time 8 weeks
# [35] = Cardiotoxicity in conscious cynomolgus monkey assessed as arrhythmia at 3.125 to 12.5 mg/kg, IG measured within 24 hrs; type: toxicity, organism-based, Macaca fascicularis; conditions: in vivo, po, dose 3.125-12.5 mg/kg
# [36] = Toxicity in male Sprague-Dawley rat assessed as piloerection at 7.5 mg/kg, po administered once daily for 4 weeks; type: organism-based; conditions: in vivo, 672 h
# [37] = Toxicity in female Sprague-Dawley rat assessed as suppression of food consumption at 7.5 mg/kg, po administered once daily for 4 weeks and measured weekly twice; type: organism-based; conditions: in vivo, 672 h
# [38] = molecular target: Cannabinoid receptor 2 (Homo sapiens) (UniProt P34972); assay: Binding affinity to CB2 (unknown origin) at 10 uM by radioligand binding assay relative to control
# [39] = molecular target: Trace amine-associated receptor 1 (Mus musculus, UniProt Q923Y8); assay: Agonist activity at mouse TAAR1; type: functional
# Trace amine-associated receptor 1, sequence (Q923Y8 whole entry): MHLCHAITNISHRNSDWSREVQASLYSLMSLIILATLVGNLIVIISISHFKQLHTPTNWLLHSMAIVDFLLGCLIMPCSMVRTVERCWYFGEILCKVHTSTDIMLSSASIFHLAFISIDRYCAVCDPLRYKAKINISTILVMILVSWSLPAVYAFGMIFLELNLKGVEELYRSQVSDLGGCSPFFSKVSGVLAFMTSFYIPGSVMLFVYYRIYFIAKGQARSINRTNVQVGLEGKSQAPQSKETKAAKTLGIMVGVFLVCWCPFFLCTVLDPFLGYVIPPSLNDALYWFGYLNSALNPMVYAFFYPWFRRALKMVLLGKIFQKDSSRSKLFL
# Sodium-dependent dopamine transporter (Homo sapiens), sequence (Q01959 whole entry): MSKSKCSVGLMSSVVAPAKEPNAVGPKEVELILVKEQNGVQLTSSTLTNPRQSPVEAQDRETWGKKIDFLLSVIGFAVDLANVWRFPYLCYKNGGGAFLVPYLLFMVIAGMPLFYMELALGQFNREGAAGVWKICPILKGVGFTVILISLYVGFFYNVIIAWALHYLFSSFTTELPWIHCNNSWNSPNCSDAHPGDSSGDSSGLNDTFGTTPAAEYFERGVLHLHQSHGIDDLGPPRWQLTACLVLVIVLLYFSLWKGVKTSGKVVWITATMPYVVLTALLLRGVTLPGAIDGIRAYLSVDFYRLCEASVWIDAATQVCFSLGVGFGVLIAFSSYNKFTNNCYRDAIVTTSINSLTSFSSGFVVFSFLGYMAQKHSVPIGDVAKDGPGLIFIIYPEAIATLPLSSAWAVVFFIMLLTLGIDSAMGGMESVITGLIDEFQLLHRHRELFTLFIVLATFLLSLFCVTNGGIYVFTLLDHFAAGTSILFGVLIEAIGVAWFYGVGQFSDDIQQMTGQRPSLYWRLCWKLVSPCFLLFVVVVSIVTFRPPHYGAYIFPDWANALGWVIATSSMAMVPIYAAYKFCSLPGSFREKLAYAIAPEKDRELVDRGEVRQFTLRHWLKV
# 5-hydroxytryptamine receptor 2C (Rattus norvegicus), sequence (P08909 whole entry): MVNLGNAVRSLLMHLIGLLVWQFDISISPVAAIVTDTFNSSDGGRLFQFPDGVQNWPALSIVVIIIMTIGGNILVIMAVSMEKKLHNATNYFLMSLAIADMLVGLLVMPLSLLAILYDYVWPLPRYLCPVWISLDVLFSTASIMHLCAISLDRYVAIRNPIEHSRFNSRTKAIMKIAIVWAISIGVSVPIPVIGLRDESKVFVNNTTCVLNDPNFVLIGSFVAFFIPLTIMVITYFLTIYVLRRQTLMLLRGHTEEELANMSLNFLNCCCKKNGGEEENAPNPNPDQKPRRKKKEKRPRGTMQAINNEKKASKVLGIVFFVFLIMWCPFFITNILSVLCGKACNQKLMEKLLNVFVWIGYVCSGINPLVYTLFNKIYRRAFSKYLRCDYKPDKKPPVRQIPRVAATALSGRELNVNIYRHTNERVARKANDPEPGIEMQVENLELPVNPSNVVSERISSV
# 5-hydroxytryptamine receptor 2C (Homo sapiens), P28335 [W324A], sequence (P28335 whole entry W324A): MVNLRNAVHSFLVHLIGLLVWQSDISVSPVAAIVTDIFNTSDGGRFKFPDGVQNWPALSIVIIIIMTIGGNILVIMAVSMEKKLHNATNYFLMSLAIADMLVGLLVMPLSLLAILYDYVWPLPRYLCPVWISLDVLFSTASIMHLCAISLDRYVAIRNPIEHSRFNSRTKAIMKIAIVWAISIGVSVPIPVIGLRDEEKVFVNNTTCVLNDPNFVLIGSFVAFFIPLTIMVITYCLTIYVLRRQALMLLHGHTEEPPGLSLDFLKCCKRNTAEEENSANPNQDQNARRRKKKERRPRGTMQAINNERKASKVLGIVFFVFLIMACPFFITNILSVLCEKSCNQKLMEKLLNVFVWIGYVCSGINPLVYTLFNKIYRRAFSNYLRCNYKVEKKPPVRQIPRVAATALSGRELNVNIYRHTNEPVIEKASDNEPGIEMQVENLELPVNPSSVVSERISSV
# 5-hydroxytryptamine receptor 2C (Homo sapiens), P28335 [D134A], sequence (P28335 whole entry D134A): as the sequence (P28335 whole entry W324A) above, with D134A, A324W counted along it
# Mu-type opioid receptor (Homo sapiens), sequence (P35372 whole entry): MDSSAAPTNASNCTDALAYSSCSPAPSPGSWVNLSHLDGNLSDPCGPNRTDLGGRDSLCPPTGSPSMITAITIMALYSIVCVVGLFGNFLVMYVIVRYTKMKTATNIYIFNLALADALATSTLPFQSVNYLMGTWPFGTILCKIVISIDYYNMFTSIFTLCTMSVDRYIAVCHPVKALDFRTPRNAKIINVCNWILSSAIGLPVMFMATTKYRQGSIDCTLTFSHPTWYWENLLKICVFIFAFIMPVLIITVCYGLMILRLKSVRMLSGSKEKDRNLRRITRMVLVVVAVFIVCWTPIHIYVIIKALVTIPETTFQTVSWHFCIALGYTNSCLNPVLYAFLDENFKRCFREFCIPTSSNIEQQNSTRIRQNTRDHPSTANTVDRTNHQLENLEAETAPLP
# Trace amine-associated receptor 1 (Mus musculus), sequence (Q923Y8 whole entry): as the sequence (Q923Y8 whole entry) above
# 5-hydroxytryptamine receptor 1B (Homo sapiens), sequence (P28222 whole entry): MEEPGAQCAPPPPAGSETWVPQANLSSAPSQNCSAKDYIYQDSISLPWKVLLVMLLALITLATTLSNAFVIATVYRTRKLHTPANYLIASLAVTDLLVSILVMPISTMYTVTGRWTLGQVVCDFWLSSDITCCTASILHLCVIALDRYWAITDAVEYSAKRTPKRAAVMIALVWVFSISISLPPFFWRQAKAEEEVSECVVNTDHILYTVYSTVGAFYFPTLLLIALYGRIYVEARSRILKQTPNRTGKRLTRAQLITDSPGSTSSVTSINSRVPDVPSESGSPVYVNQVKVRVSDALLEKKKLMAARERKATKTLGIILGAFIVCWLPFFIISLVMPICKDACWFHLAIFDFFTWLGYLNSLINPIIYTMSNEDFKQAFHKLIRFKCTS
# Vasopressin V1a receptor (Homo sapiens), sequence (P37288 whole entry, looked up): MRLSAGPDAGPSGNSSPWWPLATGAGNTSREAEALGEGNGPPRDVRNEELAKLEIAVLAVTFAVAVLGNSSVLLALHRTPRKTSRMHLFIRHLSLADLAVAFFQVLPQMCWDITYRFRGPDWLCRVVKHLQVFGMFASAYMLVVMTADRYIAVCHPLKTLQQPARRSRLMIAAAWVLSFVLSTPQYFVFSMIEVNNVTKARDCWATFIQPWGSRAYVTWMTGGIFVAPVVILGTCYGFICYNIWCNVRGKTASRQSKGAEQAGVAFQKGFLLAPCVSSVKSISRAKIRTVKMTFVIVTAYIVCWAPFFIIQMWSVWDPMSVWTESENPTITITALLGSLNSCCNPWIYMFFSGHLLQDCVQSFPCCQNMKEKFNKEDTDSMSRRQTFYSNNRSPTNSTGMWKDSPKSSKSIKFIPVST
# Trace amine-associated receptor 1 (Rattus norvegicus), sequence (Q923Y9 whole entry): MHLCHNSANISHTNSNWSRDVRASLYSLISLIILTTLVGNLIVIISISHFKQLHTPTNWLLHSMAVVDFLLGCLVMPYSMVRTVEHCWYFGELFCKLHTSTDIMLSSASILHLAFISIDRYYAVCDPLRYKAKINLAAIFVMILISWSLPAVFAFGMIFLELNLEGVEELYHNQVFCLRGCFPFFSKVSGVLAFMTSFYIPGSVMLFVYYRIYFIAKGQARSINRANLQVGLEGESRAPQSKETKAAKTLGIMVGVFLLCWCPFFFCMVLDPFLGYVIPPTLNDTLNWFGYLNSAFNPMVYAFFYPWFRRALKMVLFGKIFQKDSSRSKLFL
# Histamine H1 receptor (Homo sapiens), sequence (P35367 whole entry): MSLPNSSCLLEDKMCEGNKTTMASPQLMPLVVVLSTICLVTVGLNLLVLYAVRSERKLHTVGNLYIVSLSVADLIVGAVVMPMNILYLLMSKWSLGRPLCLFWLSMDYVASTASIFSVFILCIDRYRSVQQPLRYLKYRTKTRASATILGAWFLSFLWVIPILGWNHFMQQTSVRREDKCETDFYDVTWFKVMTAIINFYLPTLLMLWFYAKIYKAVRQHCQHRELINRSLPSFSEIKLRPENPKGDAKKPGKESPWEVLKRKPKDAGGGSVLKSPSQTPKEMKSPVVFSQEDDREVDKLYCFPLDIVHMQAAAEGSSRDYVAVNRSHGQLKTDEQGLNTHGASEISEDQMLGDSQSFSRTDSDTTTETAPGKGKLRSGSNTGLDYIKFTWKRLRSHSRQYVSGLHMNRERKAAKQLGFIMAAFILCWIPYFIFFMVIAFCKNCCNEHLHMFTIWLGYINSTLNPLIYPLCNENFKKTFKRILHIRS
smiles,measurement,setting,value
c1cc2c(s1)[C@@H]1CNCCN1CC2,Activity,[1],47.9%
same,Activity,[2],inactive
same,Emax,[3],108%
same,Activity,[4],-6.53%
same,Emax,[5],99.5%
same,Activity,[6],Non-toxic
same,Activity,[7],Non-toxic
same,CLint scaled at 1 µM,[8],< 29.7 mL/min/kg
same,Activity,[9],6.65%
same,Activity,[10],Toxic
same,Activity,[11],8.57%
same,Activity,[12],Non-toxic
same,Activity,[13],inactive
same,Activity,[14],Toxic
same,Activity,[15],Non-toxic
same,Activity,[16],Non-toxic
same,Activity,[17],Non-toxic
same,Emax,[18],100%
same,fraction unbound,[19],0.668
same,Activity,[20],Non-toxic
same,Activity,[21],18.2%
same,Activity,[22],Non-toxic
same,Activity,[23],inactive
same,Activity,[24],Toxic
same,Activity,[25],Non-toxic
same,Activity,[26],Non-toxic
same,Activity,[27],Non-toxic
same,Activity,[28],Non-toxic
same,Activity,[29],Non-toxic
same,Activity,[30],Toxic
same,Activity,[31],6.93%
same,Activity,[32],4.53%
same,Activity,[33],Non-toxic
same,Activity,[34],Toxic
same,Activity,[35],Non-toxic
same,Activity,[36],Toxic
same,Activity,[37],Toxic
same,Activity,[38],2.7%
same,EC50,[39],0.0723 µM
